# Data as given in PubChem BioAssay (NCI).
#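 In this assay, cells in 96-well plates receive the compound at five concentrations for 48 hours. Endpoints are linearly interpolated between the surrounding concentrations. TGI: total growth inhibition.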
# What was measured:
# Assay in all cases: inhibition of tumour cell growth, NCI panel, 48 h
# HCT-15 colon = tested on: HCT-15 colon
# UACC-62 melanoma = tested on: UACC-62 melanoma
# A498 renal = tested on: A498 renal
# OVCAR-4 ovarian = tested on: OVCAR-4 ovarian
# HOP-92 NSCLC = tested on: HOP-92 NSCLC
# RXF 393 renal = tested on: RXF 393 renal
# U251 CNS = tested on: U251 CNS
# MDA-MB-435 = tested on: MDA-MB-435
# NCI-H522 lung = tested on: NCI-H522 lung
# COLO 205 colon = tested on: COLO 205 colon
# SK-MEL-28 melanoma = tested on: SK-MEL-28 melanoma
# SF-295 CNS = tested on: SF-295 CNS
# BT-549 breast = tested on: BT-549 breast
# HT29 colon = tested on: HT29 colon
# OVCAR-8 ovarian = tested on: OVCAR-8 ovarian
# DU-145 prostate = tested on: DU-145 prostate
# HL-60(TB) leukemia = tested on: HL-60(TB) leukemia
SMILES,TGI (HCT-15 colon) [µM],TGI (UACC-62 melanoma) [µM],TGI (A498 renal) [µM],TGI (OVCAR-4 ovarian) [µM],TGI (HOP-92 NSCLC) [µM],TGI (RXF 393 renal) [µM],TGI (U251 CNS) [µM],TGI (MDA-MB-435) [µM],TGI (NCI-H522 lung) [µM],TGI (COLO 205 colon) [µM],TGI (SK-MEL-28 melanoma) [µM],TGI (SF-295 CNS) [µM],TGI (BT-549 breast) [µM],TGI (HT29 colon) [µM],TGI (OVCAR-8 ovarian) [µM],TGI (DU-145 prostate) [µM],TGI (HL-60(TB) leukemia) [µM]
C[C@H]1C=C2[C@@H]3CC(C)(C(=O)O)CC[C@]3(C)CC[C@]2(C)[C@]2(C)CC[C@H]3C(C)(C)[C@@H](OC(=O)c4cccc5c(=O)c6ccccc6[nH]c45)CC[C@]3(C)[C@@H]12 (stereo not given in full),> 100,> 100,> 100,> 100,> 100,> 100,> 100,> 100,> 100,> 100,> 100,> 100,> 100,> 100,> 100,> 100,> 100
OC(c1ccc(-c2ccccc2)cc1)C(F)(F)c1nc2ccccc2o1 (stereo not given),> 100,> 100,> 41.2,50.4,> 86.3,49.5,> 100,> 100,> 100,> 100,> 100,> 100,> 100,> 100,> 93.1,> 82.7,> 74.1
OC1(c2ccccc2)CSC2=Nc3ccccc3C3CCN1N23 (stereo not given),39.1,46.3,44.7,> 100,69.6,36.9,28.1,34,40.5,32.3,11.3,33.8,57.4,33.8,43.5,29.7,71.1
CCN(CC)Cc1sc2nc3ccccc3n2c1-c1ccc(OC)cc1,> 100,> 100,71.6,> 100,> 100,97,> 100,12.9,> 100,77.3,> 100,> 100,> 100,40.7,> 100,> 100,> 100
N#C/C(=C\c1c[nH]c2ccccc12)C(=O)c1ccc(O)c(O)c1,> 100,> 100,> 100,> 100,99.2,> 100,> 100,> 100,> 93,> 67.7,> 100,67,65.1,> 70.8,> 100,> 100,59.5
